{"source": "paper PMC3226707", "about": "(Journal of molecular biology, 2011)", "molecules": {"B1": {"name": "Act-EF34 (alpha-actinin-2) 823-894 (protein)", "chain": "ADTDTAEQVIASFRILASDKPYILAEELRRELPPDQAQYCIKRMPAYSGPGSVPGALDYAAFSSALYGESDL"}}, "key": {"[1]": {"target": "Act-EF34", "conditions": "binding to Act-EF34; cited from earlier work"}, "[2]": {"target": "Act-EF34 (C-terminal EF hand domain of α-actinin, actinin-2 residues 823–894) (Homo sapiens, UniProt P35609)", "experiment": "Isothermal titration calorimetry of palladin peptides with Act-EF34", "assay_type": "binding", "conditions": "for ΔH / ΔG / stoichiometry of binding: ITC; for ΔH / ΔG: 27 °C; for ΔH: one-binding site model; for ΔG: calculated using standard thermodynamic equations; for stoichiometry of binding: Act-EF34 titrations"}, "[3]": {"target": "T1, palladin peptide WT (Homo sapiens)", "T1 chain": "Ac-HGQTPAAFLSALLPSQP", "experiment": "ITC"}}, "note": "Where no end group is shown, it is not given here."}
{"molecule": "AVATVVAAVDMARVRE [Titin Zr1]", "values": [{"measurement": "Kd", "setting": "[1]", "value": "0.2 to 0.3", "unit": "µM"}]}
{"molecule": "AVATVVAAVDQARVRE [Titin Zr7]", "values": [{"measurement": "Kd", "setting": "[1]", "value": "0.1 to 0.25", "unit": "µM"}]}
{"molecule": "AETAANRICKVLAVNQE [Actinin N-term]", "values": [{"measurement": "Kd", "setting": "[1]", "value": "0.568 ± 0.27", "unit": "µM"}]}
{"molecule": "Ac-HGQTSAAFLSALLPSQP [Palladin (FX)]", "values": [{"measurement": "Kd", "setting": "[2]", "value": "19.5 ± 4", "unit": "µM"}, {"measurement": "ΔH", "setting": "[2]", "value": "-6.0 ± 0.2", "unit": "kcal/mol"}, {"measurement": "ΔG", "setting": "[2]", "value": "−6.5", "unit": "kcal/mol*K"}, {"measurement": "stoichiometry of binding", "setting": "[2]", "value": "~1"}]}
{"molecule": "Ac-HGQTPAAFLSALLPSQP [Palladin (WT)]", "values": [{"measurement": "Kd", "setting": "[2]", "value": "15.7 ± 7.7", "unit": "µM"}, {"measurement": "ΔH", "setting": "[2]", "value": "-4.5 ± 0.2", "unit": "kcal/mol"}, {"measurement": "ΔG", "setting": "[2]", "value": "−6.6", "unit": "kcal/mol*K"}, {"measurement": "stoichiometry of binding", "setting": "[2]", "value": "~1"}]}
{"molecule": "FVPKVVISAAKAKEQE [Titin Zr3]", "values": [{"measurement": "Kd", "setting": "[1]", "value": "> 4", "unit": "µM"}]}
{"molecule": "B1", "values": [{"measurement": "Kd", "setting": "[3]", "value": 15.7, "unit": "µM"}]}
